Entries after “also recorded” stand apart in the source; their conditions may differ.
Key:
Type in all cases: in vivo, human
[1] = Clinical chemistry (comprehensive metabolic panel)
Protocol: (§1) The safety of the IV infusion was evaluated using a combination of endpoints, including tolerable infusion rate, total number of adverse effects, participant vital signs, a complete blood count (CBC), a comprehensive metabolic panel (CMP), glucose and insulin levels, and the participant's self-reported subjective experience.
(§2) Between-groups comparisons of each outcome measured in the […] and CMP were evaluated using mixed between-within subjects ANOVA with the timepoint being the within subjects' factor and the group assignment as the between subjects factor. Mauchly's test of sphericity was used to confirm assumptions. Violations of the assumption of sphericity are addressed with the Greenhouse-Geisser correction.
(§3) Additional analyses were conducted using GraphPad Prism (Ver. 10.0.2). Statistical significance was determined as p<0.05, with comparisons of the test articles compared to saline or between group comparisons. 2way ANOVA with Tukey's multiple comparisons test with a single pooled variance was used to determine significance in hematology, clinical chemistry, and vitals. Time in chair was analyzed for study 1 by a one-way ANOVA with multiple comparisons, study 2 was analyzed by unpaired t-test. The baseline variable of age was analyzed for differences by one way ANOVA with multiple comparisons for study.

[2] = Vital signs post-intervention (Study 1); conditions: single 500 mg dose, mean (SD)
Protocol: (§4) The present randomized, double-blinded, placebo-controlled, pilot clinical study was initiated with the primary aim of investigating the safety, tolerability, and the blood NAD+-boosting efficacy of an acute, single dose of NR IV (500 mg, test), NAD+ IV (500 mg, active comparator), oral NR (500 mg, bridge), and saline IV (placebo control) in generally healthy adult participants. The study consisted of two parts; data from 37 and 16 participants in the first and second phases, respectively, were analyzed.
as §1
(§5) To assess vital signs and subdomains on the sleep and energy scales, between-groups comparisons were assessed using analysis of covariance (ANCOVA) with baseline scores as the covariate and a Bonferroni correction. Levene's test was used to check and confirm the assumption of homogeneity of variances.
For the first study, data from 37 patients were available for intent to treat analysis; for the second study, data from 16 patients were available for intent to treat analysis.

[3] = system: whole blood NAD+; test: NAD+ analysis of dried blood spots (DBS) by LC/MS; parameters: Mean NAD: unit not given here; conditions: for Mean NAD: dried blood spot
Protocol: Finger punctures were conducted using a lancet. Blood was then applied to the circles on the dried blood spot (DBS) card and allowed to dry for a minimum of 3 hours. […] See, for example, FIG. 3. The use of dried blood spots (DBS) allowed for the analysis of NAD+ levels based upon samples that could be prepared at the clinic or by the study participants from home. While 36 of 37 participants in study 1 utilized the DBS at all time points, not all samples were analyzable. […] However, the model was significant for the 3-hour timepoint (p=0.010; […] At 6 hours, near-significant differences were observed between the NAD+ and NR IV group (t=1.99, p=0.055), and significant differences were observed between the NR IV and saline groups (t=−2.80, p=0.009), and between the NR IV and oral NR groups (t=−2.59, p=0.015). See, Tables 3-9 below. Tables 3-9 below reflect mean/SD for each group at each of the 7 timepoints. A basic ANOVA was conducted to investigate the data.

[4] = Sleep Scale, pilot clinical study (Study 1); conditions: for Sleep Maintenance: possible scores 3-18; for Sleep Latency: possible scores 4-24; for Cognitive Effects / Daytime Sleepiness / Emotional Effects / Productivity / Sleep Inertia: possible scores 5-30
Protocol: as §4
This was a 2-part study. The first study was a 4-arm randomized, placebo-controlled parallel trial. The 3 IV arms were double-blinded, while the 4th arm involved oral administration making it naturally unblinded. Participants were randomized at a 10:10:10:6 ratio to intravenous placebo (saline), NAD^+, NR, or oral NR (oral). The second study was a randomized parallel design trial with two arms for the purpose of evaluating the actual differences in infusion rates in real time. Participants were randomized at a 1:1 ratio to intravenous NR or NAD^+.
Vials of 50 mg/ml of NR or NAD+ were prepared in 10 ml of sterile water by DCA Pharmacy (Franklin, Tennessee) by prescription, for research administration only, and maintained in refrigerated conditions until use. For participants who were randomized to the test group or to the active comparator group, the NR or NAD+ was added to 500 ml of normal saline (B Braun 0.9% sodium chloride injection USP, preservative free) prior to intravenous administration. Those randomly assigned to the saline group received 500 ml of normal saline. Participants that were randomly assigned to the oral arm were provided with 500 mg of NR which was taken with water.
as §5
Tables A-D below reflect mean scores for each group at days 7 and 14. An ANCOVA was used to identify statistical significant differences, using baseline scores as the covariate which helps to account for the natural variation in psychological measurements, increasing the power of the study.
For the sleep scale, the greatest improvements were seen on the scale of sleep latency, which refers to the ability to fall asleep at night, and sleep-related cognitive effects.

[5] = Hematology (complete blood count); conditions: for mean corpuscular volume (MCV): in fL (unit assumed)
Protocol: as §1, §2, §3

[6] = Patient subjective experience and adverse event monitoring
Protocol: as §1
Adverse event monitoring began on the first day of the study and continued for 14 days (study one) or 7 days (study two). Participants were instructed to notify the research staff of any new or unusual symptoms during the trial and open-ended questions during data collection solicited unexpected side effects.

[7] = Tolerable infusion rate / infusion duration, Study 2 (IV line fully open); conditions: males, rate decreased on request, mean (SD)
Excerpt: This was a 2-part study. The first study was a 4-arm randomized, placebo-controlled parallel trial. The 3 IV arms were double-blinded, while the 4th arm involved oral administration making it naturally unblinded. Participants were randomized at a 10:10:10:6 ratio to intravenous placebo (saline), NAD^+, NR, or oral NR (oral). The second study was a randomized parallel design trial with two arms for the purpose of evaluating the actual differences in infusion rates in real time. Participants were randomized at a 1:1 ratio to intravenous NR or NAD^+. […]
In the first study, participants began the infusion at a rate of 20 drops per minute for the first 15 minutes to ensure safety and comfort. […] Participants were closely monitored for the duration of the infusion, and the infusion rate was decreased, as applicable, upon participant request.
Additional analyses were conducted using GraphPad Prism (Ver. 10.0.2). Statistical significance was determined as p<0.05, with comparisons of the test articles compared to saline or between group comparisons. […] Time in chair was analyzed for study 1 by a one-way ANOVA with multiple comparisons, study 2 was analyzed by unpaired t-test. The baseline variable of age was analyzed for differences by one way ANOVA with multiple comparisons for study.

[8] = 3 hours post infusion, mean ± SD

## NC(=O)c1ccc[n+]([C@@H]2O[C@H](COP(=O)([O-])OP(=O)(O)OC[C@H]3O[C@@H](n4cnc5c(N)ncnc54)[C@H](O)[C@@H]3O)[C@@H](O)[C@H]2O)c1 [NAD+ IV, Nicotinamide Adenine Dinucleotide]
[1]; 3- and 24-hour timepoints
  significant differences in bilirubin and AST (indicators of liver function): not detected
[1]; Study 1, mean ± SD
  change in globulin from baseline to 24 hours post infusion: 0.1300±0.1829
[1]; Study 1, mean ± SD, not deemed clinically significant
  estimated glomerular filtration rate change from baseline to 3 hours post infusion: 1.400±8.462
[2]
  Post-intervention diastolic blood pressure: 73.40 (SD: 13.15) mmHg
  Post-intervention heart rate: 68.40 (SD: 8.10) beats per minute
  Post-intervention systolic blood pressure: 117.20 (SD: 14.54) mmHg
[3]; NR IV: at 3 hours relative to placebo and NAD+ IV, NAD+ IV: within 24 hours
  effect on whole blood NAD+: did not significantly elevate
[3]; at 24 hours
  increase in whole blood NAD+ relative to baseline: 2%
[3]; 3 Hours Post-Intervention
  Mean NAD: 19.20
[3]; 6 Hours Post-Intervention
  Mean NAD: 18.88
[3]; 24 Hours Post-Intervention
  Mean NAD: 19.73
[3]; Baseline Scores
  Mean NAD: 19.27
[3]; Immediately Post-Intervention (10 minutes after infusion)
  Mean NAD: 19.16
[4]; Sleep Scale Day 7, mean score
  Sleep Maintenance: 8.88
  Sleep Latency: 11.63
  Cognitive Effects: 15.50
  Daytime Sleepiness: 17.63
  Emotional Effects: 15.75
  Productivity: 13.86
  Sleep Inertia: 17.38
[4]; Sleep Scale Day 14, mean score
  Sleep Maintenance: 8.25
  Sleep Latency: 10.75
  Cognitive Effects: 15.63
  Daytime Sleepiness: 16.88
  Emotional Effects: 16.38
  Productivity: 13.25
  Sleep Inertia: 16.00
[5]; [8]
  White blood cell count: 6.990±2.386 Thousand/microliter
  absolute neutrophils: 4724±2159 Cells/microliter
  mean corpuscular volume (MCV): 87.38±3.991
[5]; 24 hours post infusion, mean ± SD
  mean corpuscular volume (MCV): 87.34±3.035
[5]; baseline to three-hours post-infusion
  elevations in white blood cells and neutrophils: clinically significant elevations in white blood cells and increases in absolute and percentage neutrophils
[5]; baseline, mean ± SD
  mean corpuscular volume (MCV): 88.43±3.772
[6]; during IV infusion
  comfort level described by majority of patients: low
[6]; fraction of patients, nursing staff report
  patients having a bowel movement during the IV: Approximately half
[6]; patient self-report, 500 mg IV
  sensations / adverse experiences reported during infusion: anxiety, headaches, nausea, and sudden urges to have a bowel movement or diarrhea; also recorded: nausea, headache, diarrhea, and muscle tightness
[7]
  average infusion rate (total infusion time): 98.88 (SD: 46.70) minutes

Reference: patent US12558367B2, “Nicotinamide riboside and derivatives thereof in intravenous formulations and methods of use thereof” (ChromaDex Inc., priority 2023, dated 2026)
